BindingDB's records for doi:10.1016/j.bioorg.2017.03.012 (Alexandria University, 2017)

Key:
[1] = biological target: T1, Prostaglandin G/H synthase 1 (Ovis aries, UniProt P05979); assay: In Vitro COX-1 and COX-2 Inhibitory Assay
T1 sequence (P05979 whole entry): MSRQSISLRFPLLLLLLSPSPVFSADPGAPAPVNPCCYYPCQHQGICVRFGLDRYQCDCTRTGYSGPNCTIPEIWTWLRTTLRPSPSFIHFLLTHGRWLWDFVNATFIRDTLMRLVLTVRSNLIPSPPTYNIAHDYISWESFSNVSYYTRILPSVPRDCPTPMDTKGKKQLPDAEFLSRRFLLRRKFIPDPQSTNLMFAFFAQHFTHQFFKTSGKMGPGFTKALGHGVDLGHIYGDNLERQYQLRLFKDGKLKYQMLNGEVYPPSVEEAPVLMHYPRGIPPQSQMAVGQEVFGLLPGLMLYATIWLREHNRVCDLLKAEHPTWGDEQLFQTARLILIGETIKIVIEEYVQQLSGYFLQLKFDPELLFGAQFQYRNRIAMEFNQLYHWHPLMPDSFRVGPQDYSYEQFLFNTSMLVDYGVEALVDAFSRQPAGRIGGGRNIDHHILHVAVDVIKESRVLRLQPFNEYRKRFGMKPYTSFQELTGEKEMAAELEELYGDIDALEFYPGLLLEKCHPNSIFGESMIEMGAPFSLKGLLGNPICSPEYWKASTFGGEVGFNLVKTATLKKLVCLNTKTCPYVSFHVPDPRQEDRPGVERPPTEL

[2] = biological target: T2, Prostaglandin G/H synthase 2 (Ovis aries, UniProt P79208); assay: In Vitro COX-1 and COX-2 Inhibitory Assay
T2 sequence (P79208 whole entry): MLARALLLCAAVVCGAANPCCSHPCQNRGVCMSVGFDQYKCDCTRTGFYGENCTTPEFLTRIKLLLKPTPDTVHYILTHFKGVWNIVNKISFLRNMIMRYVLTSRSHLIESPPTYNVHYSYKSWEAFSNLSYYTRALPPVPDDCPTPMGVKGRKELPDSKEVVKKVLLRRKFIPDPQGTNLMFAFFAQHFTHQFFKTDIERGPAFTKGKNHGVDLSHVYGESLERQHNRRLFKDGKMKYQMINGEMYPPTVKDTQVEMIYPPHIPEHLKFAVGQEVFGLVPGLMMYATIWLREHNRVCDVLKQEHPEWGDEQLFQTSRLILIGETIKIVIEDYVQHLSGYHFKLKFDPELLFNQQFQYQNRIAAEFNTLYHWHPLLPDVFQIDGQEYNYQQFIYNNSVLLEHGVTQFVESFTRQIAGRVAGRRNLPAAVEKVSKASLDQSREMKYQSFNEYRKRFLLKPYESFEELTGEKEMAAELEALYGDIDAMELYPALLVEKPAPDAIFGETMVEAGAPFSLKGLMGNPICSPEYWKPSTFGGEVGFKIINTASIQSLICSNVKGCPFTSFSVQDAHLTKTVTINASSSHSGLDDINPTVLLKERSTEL

[3] = biological target: T3, Polyunsaturated fatty acid 5-lipoxygenase (Homo sapiens, UniProt P09917); assay: In Vitro Lipoxygenase (LOX) Inhibitory Assay
T3 sequence (P09917 whole entry): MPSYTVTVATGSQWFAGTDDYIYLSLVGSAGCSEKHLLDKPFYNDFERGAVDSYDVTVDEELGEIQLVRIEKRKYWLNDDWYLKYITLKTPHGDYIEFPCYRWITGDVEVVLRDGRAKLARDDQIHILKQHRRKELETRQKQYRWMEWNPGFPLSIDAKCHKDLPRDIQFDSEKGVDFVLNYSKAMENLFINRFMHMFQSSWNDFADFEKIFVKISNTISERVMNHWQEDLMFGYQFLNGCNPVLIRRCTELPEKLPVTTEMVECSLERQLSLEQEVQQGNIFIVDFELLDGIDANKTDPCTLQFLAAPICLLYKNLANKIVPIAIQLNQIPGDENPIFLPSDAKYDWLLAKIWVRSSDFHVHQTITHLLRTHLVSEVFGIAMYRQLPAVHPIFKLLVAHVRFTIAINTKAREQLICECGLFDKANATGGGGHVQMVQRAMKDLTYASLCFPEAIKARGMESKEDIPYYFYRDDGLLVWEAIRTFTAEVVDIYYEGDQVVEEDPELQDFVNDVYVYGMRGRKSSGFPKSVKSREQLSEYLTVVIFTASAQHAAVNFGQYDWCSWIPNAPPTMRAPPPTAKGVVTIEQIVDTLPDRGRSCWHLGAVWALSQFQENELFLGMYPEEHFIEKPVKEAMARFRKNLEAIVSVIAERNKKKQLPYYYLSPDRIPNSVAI
Procedure: All the newly synthesized compounds were also evaluated in vitro for their ability to inhibit lipoxygenase enzyme. This was carried out using Abnova lipoxygenase inhibitor screening assay kit (Catalog No. (KA1329). Inhibitors were dissolved in DMSO and were added to the assay in a final volume of 10 μl before initiating with substrate. Three concentrations were prepared (25, 50 and 100 μM) and the concentration that produced 50% enzyme inhibition was determined according to manufacturer instructions [Plačkov et al., Free Radic. Biol. Med., 97:223-235].

SMILES	IC50 [1]	IC50 [2]	IC50 [3]
COc1ccc(-c2nn(-c3ccccc3)cc2/C=C2\SC(=S)N(NC(=O)c3sc4ccccc4c3Cl)C2=O)cc1 [3-Chloro-N-(5-{[3-(4-methoxyphenyl)-1-phenyl-1H-pyrazol-4-yl]methylene}-4-oxo-2-thioxothiazolidin-3-yl)benzo[b]thiophene-2-carboxamide (5b)]	7.6 µM	2.61 µM	8.71 µM
O=C(NN1C(=O)/C(=C/c2ccccc2)SC1=S)c1sc2ccccc2c1Cl [N-(5-Benzylidene-4-oxo-2-thioxothiazolidin-3-yl)-3-chlorobenzo[b]thiophene-2-carboxamide (5d)]	10.6 µM	3.12 µM	8.74 µM
O=C(NN1C(=O)/C(=C/c2cn(-c3ccccc3)nc2-c2ccc(Br)cc2)SC1=S)c1sc2ccccc2c1Cl [N-(5-{[3-(4-Bromophenyl)-1-phenyl-1H-pyrazol-4-yl]methylene}-4-oxo-2-thioxothiazolidin-3-yl)-3-chlorobenzo[b]thiophene-2-carboxamide (5c)]	12.4 µM	4.88 µM	9.51 µM
O=C(NN1C(=O)/C(=C/c2ccc(Cl)cc2)SC1=S)c1sc2ccccc2c1Cl [3-Chloro-N-[5-(4-chlorobenzylidene)-4-oxo-2-thioxothiazolidin-3-yl]benzo[b]thiophene-2-carboxamide (5f)]	4.9 µM	1.23 µM	3.74 µM
O=C(NN1C(=O)CSC1=S)c1cc2ccccc2o1 [N-(4-Oxo-2-thioxothiazolidin-3-yl)benzofuran-2-carboxamide (9)]	6.8 µM	1.83 µM	5.92 µM
O=C(NN1C(=O)/C(=C/c2cn(-c3ccccc3)nc2-c2ccc(Br)cc2)SC1=S)c1cc2ccccc2o1 [N-(5-{[3-(4-Bromophenyl)-1-phenyl-1H-pyrazol-4-yl]methylene}-4-oxo-2-thioxothiazolidin-3-yl)benzofuran-2-carboxamide (10c)]	13.4 µM	5.32 µM	10.2 µM
O=C(NN1C(=O)/C(=C/c2cn(-c3ccccc3)nc2-c2ccccc2)SC1=S)c1cc2ccccc2o1 [N-{5-[(1,3-Diphenyl-1H-pyrazol-4-yl)methylene]-4-oxo-2-thioxothiazolidin-3-yl}benzofuran2-carboxamide (10a)]	12.4 µM	4.81 µM	9.21 µM
COc1ccc(/C=C2\SC(=S)N(NC(=O)c3sc4ccccc4c3Cl)C2=O)cc1OC [3-Chloro-N-[5-(3,4-dimethoxybenzylidene)-4-oxo-2-thioxothiazolidin-3-yl]benzo [b]thiophene-2-carboxamide (5h)]	3.4 µM		
O=C(NN1C(=O)CSC1=S)c1sc2ccccc2c1Cl [3-Chloro-N-(4-oxo-2-thioxothiazolidin-3-yl)benzo[b]thiophene-2-carboxamide (4)]	8.7 µM	2.43 µM	6.87 µM
Cc1ccc(Cl)c(Nc2ccccc2C(=O)O)c1Cl			5.64 µM
COc1cc(/C=C2\SC(=S)N(NC(=O)c3sc4ccccc4c3Cl)C2=O)ccc1O [3-Chloro-N-[5-(4-hydroxy-3-methoxybenzylidene)-4-oxo-2-thioxothiazolidin-3-yl]benzo [b]thiophene-2-carboxamide (5g)]	10.4 µM	4.22 µM	6.91 µM
COc1ccc(/C=C2\SC(=S)N(NC(=O)c3sc4ccccc4c3Cl)C2=O)cc1 [3-Chloro-N-[5-(4-methoxybenzylidene)-4-oxo-2-thioxothiazolidin-3-yl]benzo[b]thiophene-2-carboxamide (5e)]	6.3 µM	1.89 µM	4.97 µM
Cc1ccc(-c2cc(C(F)(F)F)nn2-c2ccc(S(N)(=O)=O)cc2)cc1 [Celecoxib]			6.87 µM
O=C1Nc2ccccc2/C1=C1\SC(=S)N(NC(=O)c2sc3ccccc3c2Cl)C1=O [3-Chloro-N-[4-oxo-5-(2-oxoindolin-3-ylidene)-2-thioxothiazolidin-3-yl]benzo[b]thiophene-2-carboxamide (5i)]	5.9 µM	1.56 µM	6.87 µM
COc1ccc(-c2nn(-c3ccccc3)cc2/C=C2\SC(=S)N(NC(=O)c3cc4ccccc4o3)C2=O)cc1 [N-(5-{[3-(4-Methoxyphenyl)-1-phenyl-1H-pyrazol-4-yl]methylene}-4-oxo-2-thioxothiazolidin-3-yl)benzofuran-2-carboxamide (10b)]	8.7 µM	2.74 µM	6.91 µM
O=C(NN1C(=O)/C(=C/c2cn(-c3ccccc3)nc2-c2ccccc2)SC1=S)c1sc2ccccc2c1Cl [3-Chloro-N-{5-[(1,3-diphenyl-1H-pyrazol-4-yl)methylene]-4-oxo-2-thioxothiazolidin-3-yl}benzo[b]thiophene-2-carboxamide (5a)]	5.1 µM	1.49 µM	3.97 µM
